Test system: pre-cultured PBMCs (NSP12-specific T cells)
Test: IFN-γ ELISpot with single 15-mer peptides after 11–13 days in vitro peptide-pool T-cell expansion
Assay type: cell-based, human
Settings: single NSP12 15-mer peptides; for peptide-specific response, donor HH-N12-18, post COVID-19 / peptide-specific response, donor HH-N12-34, post COVID-19 / peptide-specific response, donor HH-N12-35, post COVID-19 / peptide-specific response, donor HH-N12-36, post COVID-19 / peptide-specific response, donor HH-N12-37, post COVID-19: sample post COVID-19; for peptide-specific response, donor HH-N12-18, pre COVID-19 / peptide-specific response, donor HH-N12-34, pre COVID-19 / peptide-specific response, donor HH-N12-35, pre COVID-19 / peptide-specific response, donor HH-N12-36, pre COVID-19 / peptide-specific response, donor HH-N12-37, pre COVID-19: sample pre COVID-19

Row | Substance | peptide-specific response, donor HH-N12-18, post COVID-19 | peptide-specific response, donor HH-N12-18, pre COVID-19 | peptide-specific response, donor HH-N12-34, post COVID-19 | peptide-specific response, donor HH-N12-34, pre COVID-19 | peptide-specific response, donor HH-N12-35, post COVID-19 | peptide-specific response, donor HH-N12-35, pre COVID-19 | peptide-specific response, donor HH-N12-36, post COVID-19 | peptide-specific response, donor HH-N12-36, pre COVID-19 | peptide-specific response, donor HH-N12-37, post COVID-19 | peptide-specific response, donor HH-N12-37, pre COVID-19
1 | Peptide 110: 15-mer peptide of SARS-CoV-2 NSP12, aa 546-560 | 0 | 0 | 0.023 | 0 | 0 | 0 | 0 | 0 | 0 | 0
2 | QFCDAMRNAGIVGVL [compound 39] | 0 | 0 | 0 | 0 | 0 | 0 | 0 | 0 | 0 | 0
3 | QHEETIYNLLKDCPA [compound 17] | 0 | 0 | 0 | 0 | 0 | 0 | 0 | 0 | 0.021 | 0
4 | RIMASLVLARKHTTC [compound 127] | 0 | 0.031 | 0 | 0 | 0 | 0.074 | 0 | 0 | 0 | 0.051
5 | RLYECLYRNRDVDTD [compound 146] | 0 | 0 | 0.023 | 0 | 0 | 0 | 0 | 0 | 0 | 0.02
6 | SADAQSFLNRVCGVS [compound 1] | 0 | 0 | 0 | 0 | 0 | 0 | 0.037 | 0 | 0 | 0
7 | SFLNRVCGVSAARLT [compound 2] | 0 | 0 | 0 | 0 | 0 | 0 | 0 | 0 | 0 | 0
8 | TEERLKLFDRYFKYW [compound 56] | 0 | 0 | 0 | 0 | 0 | 0.04 | 0.022 | 0 | 0 | 0
9 | TFSNYQHEETIYNLL [compound 16] | 0 | 0 | 0 | 0 | 0 | 0 | 0 | 0 | 0 | 0

From paper PMC10196118, “Evidence for broad cross-reactivity of the SARS-CoV-2 NSP12-directed CD4^+ T-cell response with pre-primed responses directed against common cold coronaviruses” (Frontiers in Immunology, 2023)
